Laboratory results as given in ChEMBL document CHEMBL3112495, “Diphenylpyridylethanamine (DPPE)-based aminoheterocycles as cholesteryl ester transfer protein inhibitors” (Bioorg Med Chem Lett, 2014).

What was measured:
[1] = Plasma concentration in hCETP/apo B-100 transgenic mouse at 30 mg/kg, po after 2 hrs; assay type: ADME, organism-based; parameters: dose 30 mg/kg, route oral
[2] = AUC in hCETP/apo B-100 transgenic mouse at 30 mg/kg, po; assay type: ADME, organism-based; parameters: dose 30 mg/kg, route oral; conditions: plasma
Mus musculus = experiment: Inhibition of CETP in hCETP/apo B-100 transgenic mouse at 30 mg/kg, po after 8 hrs; assay type: functional
[3] = Plasma concentration in hCETP/apo B-100 transgenic mouse at 30 mg/kg, po after 4 hrs; assay type: ADME, organism-based; parameters: dose 30 mg/kg, route oral
Cytochrome P450 1A2 = target: T1, Cytochrome P450 1A2 (Homo sapiens, UniProt P05177); experiment: Inhibition of CYP1A2 (unknown origin); assay type: ADME
T1 sequence (P05177 whole entry): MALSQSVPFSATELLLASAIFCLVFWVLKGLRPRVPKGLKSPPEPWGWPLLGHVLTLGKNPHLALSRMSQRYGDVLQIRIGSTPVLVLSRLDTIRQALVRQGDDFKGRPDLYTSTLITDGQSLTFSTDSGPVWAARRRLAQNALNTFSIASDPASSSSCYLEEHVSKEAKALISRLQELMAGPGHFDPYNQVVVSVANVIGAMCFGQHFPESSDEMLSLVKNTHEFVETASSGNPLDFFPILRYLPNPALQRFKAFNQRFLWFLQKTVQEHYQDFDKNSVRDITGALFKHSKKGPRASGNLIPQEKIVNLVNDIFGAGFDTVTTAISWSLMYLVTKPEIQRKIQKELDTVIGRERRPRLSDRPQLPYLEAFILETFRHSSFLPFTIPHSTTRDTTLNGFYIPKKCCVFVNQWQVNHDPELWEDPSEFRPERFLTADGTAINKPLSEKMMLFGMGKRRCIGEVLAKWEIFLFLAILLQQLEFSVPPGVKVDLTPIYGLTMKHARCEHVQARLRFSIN

[4] = Metabolic stability of the compound in rat liver microsomes assessed as compound remaining after 10 mins; assay type: ADME; conditions: read-out: Stability
PXR = target: T2, PXR (Homo sapiens, UniProt O75469); experiment: Activation of PXR (unknown origin) relative to rifampicin
T2 sequence (O75469 whole entry): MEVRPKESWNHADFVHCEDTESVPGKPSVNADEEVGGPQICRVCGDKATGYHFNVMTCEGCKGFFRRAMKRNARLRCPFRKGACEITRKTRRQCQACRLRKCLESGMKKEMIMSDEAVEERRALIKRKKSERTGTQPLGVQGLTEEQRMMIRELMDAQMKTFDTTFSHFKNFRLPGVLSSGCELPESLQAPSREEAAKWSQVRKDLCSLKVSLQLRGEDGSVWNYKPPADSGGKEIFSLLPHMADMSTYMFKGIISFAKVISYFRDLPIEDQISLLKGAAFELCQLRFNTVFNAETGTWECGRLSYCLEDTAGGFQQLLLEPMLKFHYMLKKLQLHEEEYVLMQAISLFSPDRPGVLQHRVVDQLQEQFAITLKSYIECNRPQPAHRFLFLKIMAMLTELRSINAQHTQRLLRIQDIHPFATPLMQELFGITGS

[5] = target: T3, Nuclear receptor subfamily 1 group I member 2 (Homo sapiens, UniProt O75469); experiment: Activation of PXR (unknown origin)
T3 sequence (O75469 whole entry): T2 sequence (O75469 whole entry)

Cytochrome P450 3A4 [6] = target: T4, Cytochrome P450 3A4 (Homo sapiens, UniProt P08684); experiment: Inhibition of CYP3A4 (unknown origin) using 7-benzyloxy-4-trifluoromethylcoumarin as substrate; assay type: ADME
T4 sequence (P08684 whole entry): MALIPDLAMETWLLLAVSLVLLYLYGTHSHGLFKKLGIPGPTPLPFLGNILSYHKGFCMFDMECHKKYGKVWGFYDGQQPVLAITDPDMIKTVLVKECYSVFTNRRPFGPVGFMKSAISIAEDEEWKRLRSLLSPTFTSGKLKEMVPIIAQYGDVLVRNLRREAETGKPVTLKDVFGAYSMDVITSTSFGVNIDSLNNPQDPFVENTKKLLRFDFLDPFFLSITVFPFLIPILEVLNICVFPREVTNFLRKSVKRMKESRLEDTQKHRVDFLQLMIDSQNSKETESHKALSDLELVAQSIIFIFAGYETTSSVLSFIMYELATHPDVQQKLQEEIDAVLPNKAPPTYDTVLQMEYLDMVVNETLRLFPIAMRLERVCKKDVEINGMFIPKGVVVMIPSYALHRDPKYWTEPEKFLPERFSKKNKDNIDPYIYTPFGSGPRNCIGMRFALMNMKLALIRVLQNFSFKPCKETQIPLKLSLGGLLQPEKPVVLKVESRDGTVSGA

[7] = Metabolic stability of the compound in mouse liver microsomes assessed as compound remaining after 10 mins; assay type: ADME, Microsome; conditions: read-out: Stability
Cytochrome P450 3A4 [8] = target: T4, Cytochrome P450 3A4; experiment: Inhibition of CYP3A4 (unknown origin) using benzyloxyresorufin as substrate; assay type: ADME
[9] = Metabolic stability of the compound in human liver microsomes assessed as compound remaining after 10 mins; assay type: ADME; conditions: read-out: Stability
Cytochrome P450 2C19 = Cytochrome P450 2C19 (Homo sapiens, UniProt P33261); experiment: Inhibition of CYP2C19 (unknown origin); assay type: ADME
Sequence of Cytochrome P450 2C19 (P33261 whole entry): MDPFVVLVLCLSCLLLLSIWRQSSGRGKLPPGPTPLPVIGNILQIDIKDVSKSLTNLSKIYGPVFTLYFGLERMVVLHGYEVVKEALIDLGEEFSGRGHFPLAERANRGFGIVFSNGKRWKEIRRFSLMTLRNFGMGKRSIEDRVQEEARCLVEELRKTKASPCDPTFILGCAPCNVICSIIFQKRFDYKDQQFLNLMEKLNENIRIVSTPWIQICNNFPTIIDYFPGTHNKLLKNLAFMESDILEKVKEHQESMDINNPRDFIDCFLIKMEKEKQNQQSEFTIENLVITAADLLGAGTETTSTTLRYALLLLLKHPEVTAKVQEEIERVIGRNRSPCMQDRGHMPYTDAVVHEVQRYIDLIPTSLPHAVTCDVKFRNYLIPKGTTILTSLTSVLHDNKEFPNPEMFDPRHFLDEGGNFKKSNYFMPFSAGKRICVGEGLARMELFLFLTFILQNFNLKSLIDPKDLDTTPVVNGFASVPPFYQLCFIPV

Cytochrome P450 2D6 = Cytochrome P450 2D6 (Homo sapiens, UniProt P10635); experiment: Inhibition of CYP2D6 (unknown origin); assay type: ADME
Sequence of Cytochrome P450 2D6 (P10635 whole entry): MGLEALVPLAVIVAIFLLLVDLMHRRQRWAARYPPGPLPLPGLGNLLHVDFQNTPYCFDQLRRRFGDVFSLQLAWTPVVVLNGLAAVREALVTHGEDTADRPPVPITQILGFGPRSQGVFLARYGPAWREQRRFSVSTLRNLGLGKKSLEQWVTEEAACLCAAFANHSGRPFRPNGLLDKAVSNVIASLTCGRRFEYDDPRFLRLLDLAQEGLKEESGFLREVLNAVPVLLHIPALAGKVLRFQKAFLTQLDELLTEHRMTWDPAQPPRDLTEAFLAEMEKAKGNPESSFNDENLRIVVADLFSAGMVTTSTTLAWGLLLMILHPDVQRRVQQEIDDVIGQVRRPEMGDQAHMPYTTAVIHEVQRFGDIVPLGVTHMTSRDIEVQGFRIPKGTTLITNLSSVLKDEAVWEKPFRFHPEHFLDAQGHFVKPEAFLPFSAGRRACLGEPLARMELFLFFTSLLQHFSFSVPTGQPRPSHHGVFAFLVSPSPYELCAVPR

Cytochrome P450 2C9 = Cytochrome P450 2C9 (Homo sapiens, UniProt P11712); experiment: Inhibition of CYP2C9 (unknown origin); assay type: ADME
Sequence of Cytochrome P450 2C9 (P11712 whole entry): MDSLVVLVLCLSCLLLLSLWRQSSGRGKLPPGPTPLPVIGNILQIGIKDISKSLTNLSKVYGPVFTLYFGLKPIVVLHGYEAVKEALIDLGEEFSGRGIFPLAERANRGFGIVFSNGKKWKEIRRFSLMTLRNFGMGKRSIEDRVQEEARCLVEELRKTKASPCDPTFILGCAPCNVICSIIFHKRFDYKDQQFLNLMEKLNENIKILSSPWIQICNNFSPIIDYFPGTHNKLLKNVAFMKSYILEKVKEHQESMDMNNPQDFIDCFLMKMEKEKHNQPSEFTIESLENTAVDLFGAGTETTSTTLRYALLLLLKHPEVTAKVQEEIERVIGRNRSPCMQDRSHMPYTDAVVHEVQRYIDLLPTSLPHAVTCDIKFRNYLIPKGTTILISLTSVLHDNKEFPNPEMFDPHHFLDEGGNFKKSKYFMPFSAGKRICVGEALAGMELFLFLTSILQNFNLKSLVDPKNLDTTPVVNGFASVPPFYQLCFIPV

[10] = target: T5, Cholesteryl ester transfer protein (Homo sapiens, UniProt P11597); experiment: Inhibition of human recombinant CETP using [3H]-CE/HDL by scintillation proximity assay
T5 sequence (P11597 whole entry): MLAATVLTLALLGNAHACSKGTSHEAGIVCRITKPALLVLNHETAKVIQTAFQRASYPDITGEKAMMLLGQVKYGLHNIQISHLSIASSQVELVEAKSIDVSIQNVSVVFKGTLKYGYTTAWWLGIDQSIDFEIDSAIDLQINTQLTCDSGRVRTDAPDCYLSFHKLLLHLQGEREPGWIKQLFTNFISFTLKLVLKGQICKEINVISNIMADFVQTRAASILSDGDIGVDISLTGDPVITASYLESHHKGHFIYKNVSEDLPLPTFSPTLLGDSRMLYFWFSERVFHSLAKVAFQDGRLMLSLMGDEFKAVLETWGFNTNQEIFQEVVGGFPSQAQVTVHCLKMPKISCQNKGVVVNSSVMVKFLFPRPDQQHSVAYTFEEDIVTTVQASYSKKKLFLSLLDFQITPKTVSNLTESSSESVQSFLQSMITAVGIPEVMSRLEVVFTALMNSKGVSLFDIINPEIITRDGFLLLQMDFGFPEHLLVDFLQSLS

[11] = target: T5, Cholesteryl ester transfer protein; experiment: Inhibition of CETP in human whole plasma using [3H]-CE/HDL after 10 mins
[12] = Plasma concentration in hCETP/apo B-100 transgenic mouse at 30 mg/kg, po after 8 hrs; assay type: ADME, organism-based; parameters: dose 30 mg/kg, route oral

| Structure (SMILES) | concentration at 2 h [1] | AUC [2] | inhibition in vivo at 30 mg/kg (Mus musculus) | concentration at 4 h [3] | IC50 (Cytochrome P450 1A2) | remaining at 10 min [4] | Emax (PXR) | EC60 [5] | IC50 (Cytochrome P450 3A4 [6]) | remaining at 10 min [7] | IC50 (Cytochrome P450 3A4 [8]) | remaining at 10 min [9] | IC50 (Cytochrome P450 2C19) | IC50 (Cytochrome P450 2D6) | IC50 (Cytochrome P450 2C9) | IC50 [10] | IC50 [11] | concentration at 8 h [12] |
| --- | --- | --- | --- | --- | --- | --- | --- | --- | --- | --- | --- | --- | --- | --- | --- | --- | --- | --- |
| O=C(NC1CCCC1)N[C@@](Cc1ccccc1)(c1cc(F)cc(C(F)(F)F)c1)c1ccc(Cl)cn1 | 1750 nM | 5.71 µM·h | 56% | 1010 nM |  |  |  |  |  |  |  |  |  |  |  |  |  |  |
| O=C(NC1CCCC1)N[C@@](Cc1ccccc1)(c1cc(F)cc(OC(F)(F)C(F)F)c1)c1ccc(Cl)cn1 |  |  |  |  | 40 µM | 12% | 88% | 0.7 µM | 8.8 µM | 4% | 3.6 µM | 10% | 17 µM | 15 µM | 4.4 µM |  |  |  |
| Fc1cc(OC(F)(F)C(F)F)cc([C@@](Cc2ccccc2)(Nc2nc3c(F)cc(F)cc3[nH]2)c2ccc(Cl)cn2)c1 |  |  |  |  | 40 µM | 100% | 25% | > 5.6 µM | 24 µM | 72% | 19 µM | 68% | 3 µM | 40 µM | 15 µM | 0.04 µM | 6.4 µM |  |
| Fc1cc(OC(F)(F)C(F)F)cc([C@@](Cc2ccccc2)(Nc2nc3cc(F)ccc3[nH]2)c2ccc(Cl)cn2)c1 |  |  |  |  | 40 µM | 95% | 56% | > 17 µM | 32 µM | 62% | 40 µM | 56% | 2 µM | 29 µM | 40 µM | 0.05 µM | 9.5 µM |  |
| Fc1cc(OC(F)(F)C(F)F)cc([C@@](Cc2ccccc2)(Nc2nc3ccccc3[nH]2)c2ccc(Cl)cn2)c1 |  |  |  |  | 40 µM |  | 70% | > 17 µM | 40 µM |  | 13 µM |  | 3 µM | 40 µM | 19 µM | 0.09 µM | 15 µM |  |
| Cc1sc(N[C@](Cc2ccccc2)(c2cc(F)cc(OC(F)(F)C(F)F)c2)c2ccc(Cl)cn2)nc1C(F)(F)F |  |  |  |  | > 40 µM | 55% | 44% | > 5.6 µM | > 40 µM | 59% | > 40 µM | 82% | > 40 µM | > 40 µM | > 40 µM | 0.02 µM | 3.2 µM |  |
| Fc1cc(OC(F)(F)C(F)F)cc([C@@](Cc2ccccc2)(Nc2nc(C(F)(F)F)cs2)c2ccc(Cl)cn2)c1 |  |  |  |  | 40 µM | 83% | 45% | > 17 µM | 40 µM | 78% | 40 µM | 98% | 13 µM | 40 µM | 40 µM | 0.22 µM | 14.8 µM |  |
| Fc1cc(OC(F)(F)C(F)F)cc([C@@](Cc2ccccc2)(Nc2nc3c(s2)CCCC3)c2ccc(Cl)cn2)c1 |  |  |  |  |  |  |  |  |  |  |  |  |  |  |  | 0.02 µM | 4.2 µM |  |
| Fc1cc(OC(F)(F)C(F)F)cc([C@@](Cc2ccccc2)(Nc2nc(C(F)(F)F)c(Br)s2)c2ccc(Cl)cn2)c1 |  |  |  |  | > 40 µM | 95% | 37% | > 5.6 µM | > 40 µM | 100% | > 40 µM | 100% | > 40 µM | > 40 µM | > 40 µM | 0.04 µM | 6.5 µM |  |
| Cc1nc(N[C@](Cc2ccccc2)(c2cc(F)cc(OC(F)(F)C(F)F)c2)c2ccc(Cl)cn2)sc1C |  |  |  |  |  |  |  |  |  |  |  |  |  |  |  | 0.04 µM | 5.5 µM |  |
| Fc1cc(C(F)(F)F)cc([C@](Cc2ccccc2)(Nc2nc3c(s2)CCCC3)c2ccc(Cl)cn2)c1 |  |  |  |  |  |  |  |  |  |  |  |  |  |  |  | 10.8 µM |  |  |
| Fc1cc(C(F)(F)F)cc([C@@](Cc2ccccc2)(Nc2nc3c(s2)CCC3)c2ccc(Cl)cn2)c1 | 2530 nM | 8.18 µM·h | 26% | 1240 nM |  | 56% |  |  |  | 33% |  | 73% |  |  |  | 0.04 µM | 8.2 µM | 142 nM |
| Cc1nc(N[C@@](Cc2ccccc2)(c2cc(F)cc(C(F)(F)F)c2)c2ccc(Cl)cn2)sc1C |  |  |  |  |  |  |  |  |  |  |  |  |  |  |  | 12.2 µM |  |  |
| Cc1nc(N[C@](Cc2ccccc2)(c2cc(F)cc(C(F)(F)F)c2)c2ccc(Cl)cn2)sc1C |  |  |  |  |  |  |  |  |  |  |  |  |  |  |  | 0.04 µM | 17.3 µM |  |
